Results reported in ChEMBL document CHEMBL6078706, “Deciphering the Comprehensive Structure-Activity Relationship of Sunshinamide for Breast Cancer Therapy through Dual Modulation of Apoptotic and Ferroptotic Pathways via TrxR1 and Gpx4 Inhibition” (J Med Chem, 2024).
Each block holds one compound with its values, some of them ahead of it. Activity calls are given as the source filed them. The calls are words filed in the database; no cut-off is given here.

What was measured:
[1] = molecular target: T1, Thioredoxin reductase 1, cytoplasmic (Homo sapiens) (UniProt Q16881); test: Inhibition of recombinant TRXR1 (unknown origin) assessed as reduction in DTNB incubated for 2 hrs in presence of NADPH by microplate reader analysis
T1 sequence (whole entry): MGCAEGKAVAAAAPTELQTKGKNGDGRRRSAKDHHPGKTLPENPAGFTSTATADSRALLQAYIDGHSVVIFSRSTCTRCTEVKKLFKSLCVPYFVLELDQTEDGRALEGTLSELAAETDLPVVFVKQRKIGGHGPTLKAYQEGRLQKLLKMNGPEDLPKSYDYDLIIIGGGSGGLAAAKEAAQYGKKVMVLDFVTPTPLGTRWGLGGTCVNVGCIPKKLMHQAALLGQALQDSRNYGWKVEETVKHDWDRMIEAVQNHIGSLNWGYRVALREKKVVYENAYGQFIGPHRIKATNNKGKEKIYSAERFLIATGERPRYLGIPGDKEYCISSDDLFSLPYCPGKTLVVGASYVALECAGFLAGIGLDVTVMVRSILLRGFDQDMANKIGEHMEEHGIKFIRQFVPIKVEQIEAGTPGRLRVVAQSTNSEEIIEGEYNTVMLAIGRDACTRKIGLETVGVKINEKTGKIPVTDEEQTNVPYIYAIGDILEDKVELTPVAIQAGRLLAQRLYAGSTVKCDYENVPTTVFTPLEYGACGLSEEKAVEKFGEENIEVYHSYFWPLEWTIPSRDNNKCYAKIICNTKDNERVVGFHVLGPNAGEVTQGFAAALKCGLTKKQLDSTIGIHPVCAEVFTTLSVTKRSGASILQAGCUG

MDA-MB-468 [2] = test: Induction of apoptosis in human MDA-MB-468 cells assessed as increase in caspase 3/7 activation at 25 nM measured at 12 hrs in presence of 4-PBA by Western blot analysis; format: functional, cell-based
[3] = molecular target: T2, Phospholipid hydroperoxide glutathione peroxidase GPX4 (Homo sapiens) (UniProt P36969); test: Inhibition of GPX4 in human MDA-MB-468 cells incubated for 12 hrs in presence of NADPH; format: cell-based; settings: dose 25.0 nM
T2 sequence (whole entry): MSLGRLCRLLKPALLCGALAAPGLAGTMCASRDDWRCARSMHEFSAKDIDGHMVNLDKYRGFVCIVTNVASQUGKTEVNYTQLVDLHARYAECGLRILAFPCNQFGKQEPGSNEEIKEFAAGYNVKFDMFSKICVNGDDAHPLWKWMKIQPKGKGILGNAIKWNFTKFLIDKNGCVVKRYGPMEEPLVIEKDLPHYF

MDA-MB-468 [4] = test: Induction of endoplasmic reticulum (ER) stress-mediated apoptosis in human MDA-MB-468 cells assessed as increase in ATF4 expression at 25 nM measured after 12 hrs by Western blot analysis; format: functional, cell-based
MDA-MB-468 [5] = test: Induction of ferroptosis in human MDA-MB-468 cells assessed as increase in cell viability at 25 nM incubated for 48 hrs in presence of Z-VAD; format: functional, cell-based
MDA-MB-468 [6] = test: Effect on TRXR1 expression in human MDA-MB-468 cells at 25 nM incubated for 24 hrs by Western blot analysis; format: functional, cell-based
MDA-MB-468 [7] = test: Induction of ferroptosis in human MDA-MB-468 cells assessed as increase in 4-HNE level at 25 nM; format: functional, cell-based
MDA-MB-468 [8] = test: Induction of ferroptosis in human MDA-MB-468 cells assessed as decrease in MDA level at 25 nM in presence of ferrostatin-1; format: functional, cell-based
MDA-MB-468 [9] = test: Induction of endoplasmic reticulum (ER) stress-mediated apoptosis in human MDA-MB-468 cells assessed as reduction in CHOP expression at 25 nM measured for 12 hrs in presence of 4-PBA by Western blot analysis; format: functional, cell-based
HEK293 = test: Antiproliferative activity against human HEK293 cells assessed as cell viability upto 50 nM incubated for 48 hrs by MTT assay; format: toxicity, cell-based; settings: hek293, 48 h, 0.05 µM
MDA-MB-468 [10] = test: Induction of ferroptosis in human MDA-MB-468 cells assessed as increase in MDA level at 25 nM; format: functional, cell-based
MDA-MB-468 [11] = test: Antiproliferative activity against human MDA-MB-468 cells expressing TrxR1 assessed as reduction in cell viability at 50 nM incubated for 48 hrs by MTT assay; format: functional, cell-based
MDA-MB-468 [12] = test: Induction of apoptosis in human MDA-MB-468 cells transfected with ATF4 SiRNA assessed as increase in caspase 3/7 activation at 25 nM measured at 12 hrs by Western blot analysis; format: functional, cell-based
MDA-MB-468 [13] = test: Induction of ferroptosis in human MDA-MB-468 cells assessed as increase in cell viability at 25 nM incubated for 48 hrs in presence of ferrostatin-1; format: functional, cell-based
MDA-MB-468 [14] = test: Induction of endoplasmic reticulum (ER) stress-mediated apoptosis in human MDA-MB-468 cells assessed as increase in p-PERK level at 25 nM measured after 12 hrs by Western blot analysis; format: functional, cell-based
[15] = molecular target: T3, Cystine/glutamate transporter (Homo sapiens) (UniProt Q9UPY5); test: Inhibition of Xc- in human MDA-MB-468 cells assessed as decrease in glutamate release at 25 nM incubated for 12 hrs; format: cell-based
T3 sequence (whole entry): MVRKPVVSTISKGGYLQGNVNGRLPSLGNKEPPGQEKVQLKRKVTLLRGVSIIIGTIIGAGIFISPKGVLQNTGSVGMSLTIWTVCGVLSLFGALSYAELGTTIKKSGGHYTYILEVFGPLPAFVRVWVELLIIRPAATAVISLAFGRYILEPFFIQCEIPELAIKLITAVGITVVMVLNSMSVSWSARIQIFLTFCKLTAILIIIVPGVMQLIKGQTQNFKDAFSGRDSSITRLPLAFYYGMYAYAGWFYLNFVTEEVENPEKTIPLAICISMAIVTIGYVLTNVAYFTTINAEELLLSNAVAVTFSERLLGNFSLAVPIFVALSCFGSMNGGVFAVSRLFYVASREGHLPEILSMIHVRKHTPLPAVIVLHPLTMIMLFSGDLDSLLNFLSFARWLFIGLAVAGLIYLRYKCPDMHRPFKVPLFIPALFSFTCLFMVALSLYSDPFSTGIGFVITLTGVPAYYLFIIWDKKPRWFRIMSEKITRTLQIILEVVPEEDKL

MDA-MB-468 [16] = test: Induction of endoplasmic reticulum (ER) stress-mediated apoptosis in human MDA-MB-468 cells assessed as increase in phospho-eIF2alpha level at 25 nM measured after 12 hrs by Western blot analysis; format: functional, cell-based
MDA-MB-468 [17] = test: Induction of apoptosis in CHOP knockdown human MDA-MB-468 cells assessed as increase in caspase 3/7 activation at 25 nM measured at 12 hrs by Western blot analysis; format: functional, cell-based
MDA-MB-468 [18] = test: Induction of endoplasmic reticulum (ER) stress-mediated apoptosis in human MDA-MB-468 cells assessed as reduction in ATF4 expression at 25 nM measured for 12 hrs in presence of 4-PBA by Western blot analysis; format: functional, cell-based
MDA-MB-468 [19] = test: Antiproliferative activity against human MDA-MB-468 cells expressing GPX4 assessed as cell viability at 25 nM incubated for 48 hrs by MTT assay; format: functional, cell-based
MDA-MB-468 [20] = test: Induction of ferroptosis in human MDA-MB-468 cells assessed as reduction in intracellular GSH level at 25 nM incubated for 12 hrs; format: functional, cell-based

- inhibition [1]: inactive
- inhibition [3]: Dose-dependent-effect
- inhibition [15]: inactive
Structure (SMILES): CCCCCCC[C@@H](O)CC(=O)N[C@H](Cc1ccccc1)C(=O)N[C@H]1CSSC[C@@H](C(=O)O)NC1=O
- Activity (MDA-MB-468 [2]): Active
- Activity (MDA-MB-468 [4]): inactive
- Activity (MDA-MB-468 [5]): inactive
- Activity (MDA-MB-468 [6]): inactive
- Activity (MDA-MB-468 [7]): inactive
- Activity (MDA-MB-468 [8]): Active
- Activity (MDA-MB-468 [9]): inactive
- Activity (HEK293): Non-toxic
- Activity (MDA-MB-468 [10]): inactive
- Activity (MDA-MB-468 [11]): Active
- Activity (MDA-MB-468 [12]): Active
- Activity (MDA-MB-468 [13]): inactive
- Activity (MDA-MB-468 [14]): inactive
- Activity (MDA-MB-468 [16]): inactive
- Activity (MDA-MB-468 [17]): Active
- Activity (MDA-MB-468 [18]): inactive
- Activity (MDA-MB-468 [19]): inactive
- Activity (MDA-MB-468 [20]): inactive

- inhibition [1]: inactive
- inhibition [3]: Dose-dependent-effect
- inhibition [15]: inactive
Structure (SMILES): CCCCCCC[C@@H]1CC(=O)N[C@H](Cc2ccccc2)C(=O)N[C@@H](CSC)C(=O)N[C@@H](CSC)C(=O)O1
- Activity (MDA-MB-468 [2]): Active
- Activity (MDA-MB-468 [4]): inactive
- Activity (MDA-MB-468 [5]): inactive
- Activity (MDA-MB-468 [6]): inactive
- Activity (MDA-MB-468 [7]): inactive
- Activity (MDA-MB-468 [8]): Active
- Activity (MDA-MB-468 [9]): inactive
- Activity (HEK293): Non-toxic
- Activity (MDA-MB-468 [10]): inactive
- Activity (MDA-MB-468 [11]): Active
- Activity (MDA-MB-468 [12]): Active
- Activity (MDA-MB-468 [13]): inactive
- Activity (MDA-MB-468 [14]): inactive
- Activity (MDA-MB-468 [16]): inactive
- Activity (MDA-MB-468 [17]): Active
- Activity (MDA-MB-468 [18]): inactive
- Activity (MDA-MB-468 [19]): inactive
- Activity (MDA-MB-468 [20]): inactive

- inhibition [1]: Active
- inhibition [3]: Dose-dependent-effect
- inhibition [15]: inactive
Structure (SMILES): CCCCCCC[C@@H]1CC(=O)N[C@H](Cc2ccccc2)C(=O)N[C@H]2CSSC[C@H](NC2=O)C(=O)O1
- Activity (MDA-MB-468 [2]): Active
- Activity (MDA-MB-468 [4]): Active
- Activity (MDA-MB-468 [5]): inactive
- Activity (MDA-MB-468 [6]): inactive
- Activity (MDA-MB-468 [7]): inactive
- Activity (MDA-MB-468 [8]): Active
- Activity (MDA-MB-468 [9]): Active
- Activity (HEK293): Non-toxic
- Activity (MDA-MB-468 [10]): inactive
- Activity (MDA-MB-468 [11]): Active
- Activity (MDA-MB-468 [12]): Active
- Activity (MDA-MB-468 [13]): inactive
- Activity (MDA-MB-468 [14]): Active
- Activity (MDA-MB-468 [16]): Active
- Activity (MDA-MB-468 [17]): Active
- Activity (MDA-MB-468 [18]): Active
- Activity (MDA-MB-468 [19]): inactive
- Activity (MDA-MB-468 [20]): inactive
